Measurements: ChEMBL document CHEMBL4038272, “Synthesis and biological evaluation of novel podophyllotoxin-NSAIDs conjugates as multifunctional anti-MDR agents against resistant human hepatocellular carcinoma Bel-7402/5-FU cells” (Eur J Med Chem, 2017)
pIC50: −log10 of the molar value. Activity calls are given as the source filed them. The rule behind the calls is not given here.

Tests used:
Bel7402/5-FU [1] = assay: Antiproliferative activity against human Bel7402/5-FU cells after 72 hrs by CCK-8 assay; assay type: functional, cell-based
L02 = assay: Antiproliferative activity against human LO2 cells after 72 hrs by CCK-8 assay; assay type: cell-based; settings: L02, 72 h
Bel-7402 = assay: Antiproliferative activity against human Bel7402 cells after 72 hrs by CCK-8 assay; assay type: functional, cell-based; settings: Bel-7402, 72 h
[2] = Resistant factor, ratio of IC50 for human Bel7402/5-FU cells to IC50 for human Bel7402 cells; assay type: functional
Bel7402/5-FU [3] = assay: Effect on COX1 expression in human Bel7402/5-FU cells assessed as ratio of COX1 to beta-actin level at 0.1 uM after 48 hrs by Western blot analysis (reference value: 0.48); assay type: functional
Bel7402/5-FU [4] = assay: Induction of apoptosis in human Bel7402/5-FU cells assessed as necrotic cells at 0.1 uM after 48 hrs by Annexin V-APC/7-AAD staining based flow cytometry (reference value: 0.58%); assay type: functional
Bel7402/5-FU [5] = assay: Cell cycle arrest in human Bel7402/5-FU cells assessed as accumulation at G2 phase at 0.1 uM after 48 hrs by propidium iodide staining based flow cytometry (reference value: 35.16%); assay type: functional
[6] = molecular target: Mitogen-activated protein kinase; ERK1/ERK2 (Homo sapiens) (UniProt P27361+P28482); assay: Effect on ERK1/2 phosphorylation in human Bel7402/5-FU cells assessed as ratio of phosphorylated ERK1/2 to beta-actin level at 0.1 uM after 48 hrs by Western blot analysis (reference value: 0.59); assay type: cell-based
Mitogen-activated protein kinase; ERK1/ERK2 (Homo sapiens), sequence (P27361 whole entry, looked up): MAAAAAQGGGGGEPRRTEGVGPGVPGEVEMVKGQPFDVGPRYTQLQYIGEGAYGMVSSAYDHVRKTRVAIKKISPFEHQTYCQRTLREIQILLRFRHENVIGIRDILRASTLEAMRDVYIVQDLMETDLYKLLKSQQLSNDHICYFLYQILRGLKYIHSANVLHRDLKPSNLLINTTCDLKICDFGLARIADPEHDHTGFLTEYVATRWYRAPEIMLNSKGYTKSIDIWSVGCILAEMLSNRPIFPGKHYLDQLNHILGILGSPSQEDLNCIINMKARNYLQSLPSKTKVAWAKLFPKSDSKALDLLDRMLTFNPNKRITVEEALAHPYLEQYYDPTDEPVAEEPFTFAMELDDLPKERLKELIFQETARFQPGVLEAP
Mitogen-activated protein kinase; ERK1/ERK2 (Homo sapiens), sequence (P28482 whole entry, looked up): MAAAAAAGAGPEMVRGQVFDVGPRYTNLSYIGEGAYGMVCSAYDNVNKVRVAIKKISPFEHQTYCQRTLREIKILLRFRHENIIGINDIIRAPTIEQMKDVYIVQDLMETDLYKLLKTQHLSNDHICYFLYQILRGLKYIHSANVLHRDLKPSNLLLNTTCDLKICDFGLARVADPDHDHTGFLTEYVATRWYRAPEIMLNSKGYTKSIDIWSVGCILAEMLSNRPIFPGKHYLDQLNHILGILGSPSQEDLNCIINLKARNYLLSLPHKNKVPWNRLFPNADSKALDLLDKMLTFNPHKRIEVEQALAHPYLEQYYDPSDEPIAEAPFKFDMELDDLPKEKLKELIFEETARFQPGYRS

Bel7402/5-FU [7] = assay: Effect on CDK1 expression in human Bel7402/5-FU cells assessed as ratio of CDK1 to beta-actin level at 0.1 uM after 48 hrs by Western blot analysis (reference value: 0.33); assay type: functional
Bel7402/5-FU [8] = assay: Induction of apoptosis in human Bel7402/5-FU cells assessed as live cells at 0.1 uM after 48 hrs by Annexin V-APC/7-AAD staining based flow cytometry (reference value: 91.08%); assay type: functional
Bel7402/5-FU [9] = assay: Induction of apoptosis in human Bel7402/5-FU cells assessed as ratio of cleaved caspase-8 to beta-actin level at 0.1 uM after 48 hrs by Western blot analysis (reference value: 0.17); assay type: functional
Bel7402/5-FU [10] = assay: Induction of apoptosis in human Bel7402/5-FU cells at 0.1 uM after 24 hrs by Hoechst 33342 staining based fluorescent microscopic method; assay type: functional, cell-based
Bel7402/5-FU [11] = assay: Induction of apoptosis in human Bel7402/5-FU cells assessed as ratio of cleaved caspase-3 to beta-actin level at 0.1 uM after 48 hrs by Western blot analysis (reference value: 0.19); assay type: functional
Bel7402/5-FU [12] = assay: Effect on cyclinA expression in human Bel7402/5-FU cells assessed as ratio of cyclinA to beta-actin level at 0.1 uM after 48 hrs by Western blot analysis (reference value: 0.39); assay type: functional
Bel7402/5-FU [13] = assay: Effect on MRP1 expression in human Bel7402/5-FU cells assessed as ratio of MRP1 to beta-actin level at 0.1 uM after 48 hrs by Western blot analysis (reference value: 0.58); assay type: functional
Bel7402/5-FU [14] = assay: Effect on cyclinB1 expression in human Bel7402/5-FU cells assessed as ratio of cyclinB1 to beta-actin level at 0.1 uM after 48 hrs by Western blot analysis (reference value: 0.53); assay type: functional
Bel7402/5-FU [15] = assay: Effect on iNOS expression in human Bel7402/5-FU cells assessed as ratio of iNOS to beta-actin level at 0.1 uM after 48 hrs by Western blot analysis (reference value: 0.13); assay type: functional
Bel7402/5-FU [16] = assay: Induction of microtubule disruption in human Bel7402/5-FU cells at 0.1 uM after 24 to 48 hrs by DAPI staining based immunofluorescence microscopic method; assay type: functional, cell-based
Bel7402/5-FU [17] = assay: Cell cycle arrest in human Bel7402/5-FU cells assessed as accumulation at S phase at 0.1 uM after 48 hrs by propidium iodide staining based flow cytometry (reference value: 12.62%); assay type: functional
Bel7402/5-FU [18] = assay: Reduction in microtubule density in human Bel7402/5-FU cells at 0.1 uM after 24 to 48 hrs by DAPI staining based immunofluorescence microscopic method; assay type: functional, cell-based
Bel7402/5-FU [19] = assay: Induction of apoptosis in human Bel7402/5-FU cells assessed as early apoptotic cells at 0.1 uM after 48 hrs by Annexin V-APC/7-AAD staining based flow cytometry (reference value: 5.24%); assay type: functional
Bel7402/5-FU [20] = assay: Antimigratory activity in human Bel7402/5-FU cells at 0.1 uM after 24 hrs by wound healing assay; assay type: functional, cell-based
Bel7402/5-FU [21] = assay: Effect on COX2 expression in human Bel7402/5-FU cells assessed as ratio of COX2 to beta-actin level at 0.1 uM after 48 hrs by Western blot analysis (reference value: 0.36); assay type: functional
[22] = molecular target: RAC-alpha serine/threonine-protein kinase (Homo sapiens) (UniProt P31749); assay: Effect on AKT phosphorylation in human Bel7402/5-FU cells assessed as ratio of phosphorylated AKT to beta-actin level at 0.1 uM after 48 hrs by Western blot analysis (reference value: 0.39); assay type: cell-based
RAC-alpha serine/threonine-protein kinase (Homo sapiens), sequence (P31749 whole entry): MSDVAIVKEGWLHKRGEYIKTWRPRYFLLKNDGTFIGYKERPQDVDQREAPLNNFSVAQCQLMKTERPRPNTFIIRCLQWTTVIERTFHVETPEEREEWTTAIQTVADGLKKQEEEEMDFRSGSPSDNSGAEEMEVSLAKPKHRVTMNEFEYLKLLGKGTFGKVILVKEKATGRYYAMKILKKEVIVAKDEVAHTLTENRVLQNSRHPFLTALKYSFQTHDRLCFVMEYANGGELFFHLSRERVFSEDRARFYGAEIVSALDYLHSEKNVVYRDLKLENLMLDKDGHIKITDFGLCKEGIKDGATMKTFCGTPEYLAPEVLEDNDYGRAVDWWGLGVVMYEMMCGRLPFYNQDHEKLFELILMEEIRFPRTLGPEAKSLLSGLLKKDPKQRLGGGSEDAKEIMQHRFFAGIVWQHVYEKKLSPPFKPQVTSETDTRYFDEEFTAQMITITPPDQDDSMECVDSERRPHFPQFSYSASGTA

Bel7402/5-FU [23] = assay: Induction of apoptosis in human Bel7402/5-FU cells assessed as reduction in cell number at 0.1 uM after 24 hrs by Hoechst 33342 staining based fluorescent microscopic method; assay type: functional
Bel7402/5-FU [24] = assay: Cell cycle arrest in human Bel7402/5-FU cells assessed as accumulation at G1 phase at 0.1 uM after 48 hrs by propidium iodide staining based flow cytometry (reference value: 52.21%); assay type: functional
Bel7402/5-FU [25] = assay: Effect on E-cadherin expression in human Bel7402/5-FU cells assessed as ratio of E-cadherin to beta-actin level at 0.1 uM after 48 hrs by Western blot analysis (reference value: 0.2); assay type: functional
Bel7402/5-FU [26] = assay: Induction of apoptosis in human Bel7402/5-FU cells assessed as condensed nuclei at 0.1 uM after 24 hrs by Hoechst 33342 staining based fluorescent microscopic method; assay type: functional, cell-based
Bel7402/5-FU [27] = assay: Induction of apoptosis in human Bel7402/5-FU cells assessed as late apoptotic cells at 0.1 uM after 48 hrs by Annexin V-APC/7-AAD staining based flow cytometry (reference value: 3%); assay type: functional
Bel7402/5-FU [28] = assay: Effect on P-gp expression in human Bel7402/5-FU cells assessed as ratio of P-gp to beta-actin level at 0.1 uM after 48 hrs by Western blot analysis (reference value: 0.59); assay type: functional
Bel7402/5-FU [29] = assay: Effect on MMP2 expression in human Bel7402/5-FU cells assessed as ratio of MMP2 to beta-actin level at 0.1 uM after 48 hrs by Western blot analysis (reference value: 0.3); assay type: functional
Bel7402/5-FU [30] = assay: Effect on CDK2 expression in human Bel7402/5-FU cells assessed as ratio of CDK2 to beta-actin level at 0.1 uM after 48 hrs by Western blot analysis (reference value: 0.43); assay type: functional
Bel7402/5-FU [31] = assay: Induction of apoptosis in human Bel7402/5-FU cells assessed as morphological changes at 0.1 uM after 24 hrs by Hoechst 33342 staining based fluorescent microscopic method; assay type: functional, cell-based
Bel7402/5-FU [32] = assay: Induction of apoptosis in human Bel7402/5-FU cells assessed as ratio of cleaved PARP to beta-actin level at 0.1 uM after 48 hrs by Western blot analysis (reference value: 0.2); assay type: functional
[33] = molecular target: Signal transducer and activator of transcription 3 (Homo sapiens) (UniProt P40763); assay: Effect on STAT3 phosphorylation in human Bel7402/5-FU cells assessed as ratio of phosphorylated STAT3 to beta-actin level at 0.1 uM after 48 hrs by Western blot analysis (reference value: 0.3); assay type: cell-based
Signal transducer and activator of transcription 3 (Homo sapiens), sequence (P40763 whole entry): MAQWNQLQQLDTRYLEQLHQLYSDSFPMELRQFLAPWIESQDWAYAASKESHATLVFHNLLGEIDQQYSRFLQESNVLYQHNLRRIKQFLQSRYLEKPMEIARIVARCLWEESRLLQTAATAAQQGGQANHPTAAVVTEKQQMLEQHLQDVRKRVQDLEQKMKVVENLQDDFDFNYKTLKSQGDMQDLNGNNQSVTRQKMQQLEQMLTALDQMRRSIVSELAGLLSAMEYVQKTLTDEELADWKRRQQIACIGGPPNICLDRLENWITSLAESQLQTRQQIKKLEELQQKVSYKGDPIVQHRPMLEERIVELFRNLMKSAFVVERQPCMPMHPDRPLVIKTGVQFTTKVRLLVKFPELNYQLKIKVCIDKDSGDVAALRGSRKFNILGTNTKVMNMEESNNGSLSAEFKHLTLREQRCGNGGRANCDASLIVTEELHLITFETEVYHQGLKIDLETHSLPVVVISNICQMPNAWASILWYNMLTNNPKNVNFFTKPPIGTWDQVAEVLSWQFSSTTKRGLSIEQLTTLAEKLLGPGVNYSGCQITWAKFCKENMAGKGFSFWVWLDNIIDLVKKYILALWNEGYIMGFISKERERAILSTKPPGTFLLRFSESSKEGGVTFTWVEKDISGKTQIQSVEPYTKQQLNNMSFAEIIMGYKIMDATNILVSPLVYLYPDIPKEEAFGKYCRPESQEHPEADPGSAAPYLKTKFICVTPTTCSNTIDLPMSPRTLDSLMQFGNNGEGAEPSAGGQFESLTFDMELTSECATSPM

Bel7402/5-FU [34] = assay: Effect on VEGFR2 expression in human Bel7402/5-FU cells assessed as ratio of VEGFR2 to beta-actin level at 0.1 uM after 48 hrs by Western blot analysis (reference value: 0.25); assay type: functional
Bel7402/5-FU [35] = assay: Induction of apoptosis in human Bel7402/5-FU cells assessed as ratio of cleaved caspase-9 to beta-actin level at 0.1 uM after 48 hrs by Western blot analysis (reference value: 0.17); assay type: functional

SMILES: CC(=O)Oc1ccccc1C(=O)O [ASPIRIN]
- pIC50 (Bel7402/5-FU [1]): < 4.00
- pIC50 (L02): < 4.00
- pIC50 (Bel-7402): < 4.00

SMILES: COc1ccc2c(c1)c(CC(=O)O)c(C)n2C(=O)c1ccc(Cl)cc1 [INDOMETHACIN]
- pIC50 (Bel7402/5-FU [1]): < 4.00
- pIC50 (L02): < 4.00
- pIC50 (Bel-7402): < 4.00

SMILES: O=c1[nH]cc(F)c(=O)[nH]1 [FLUOROURACIL]
- Ratio IC50 [2]: >16.83
- pIC50 (Bel7402/5-FU [1]): < 4.00
- pIC50 (L02): 4.49
- pIC50 (Bel-7402): 5.23

SMILES: COc1cc([C@@H]2c3cc4c(cc3[C@H](OC(=O)c3ccccc3OC(C)=O)[C@H]3COC(=O)[C@H]23)OCO4)cc(OC)c1OC
- Ratio (Bel7402/5-FU [3]): 0.31
- Activity (Bel7402/5-FU [4]): 5.23%
- Ratio IC50 [2]: 0.32
- pIC50 (Bel7402/5-FU [1]): 7.19
- Activity (Bel7402/5-FU [5]): 58.28%
- Ratio [6]: 0.19
- Ratio (Bel7402/5-FU [7]): 0.28
- Activity (Bel7402/5-FU [8]): 65.12%
- Ratio (Bel7402/5-FU [9]): 0.57
- Activity (Bel7402/5-FU [10]): Active
- Ratio (Bel7402/5-FU [11]): 0.53
- Ratio (Bel7402/5-FU [12]): 0.2
- Ratio (Bel7402/5-FU [13]): 0.31
- Ratio (Bel7402/5-FU [14]): 0.09
- Ratio (Bel7402/5-FU [15]): 0.16
- Activity (Bel7402/5-FU [16]): Active
- Activity (Bel7402/5-FU [17]): 24.69%
- Activity (Bel7402/5-FU [18]): Active
- Activity (Bel7402/5-FU [19]): 5.45%
- Activity (Bel7402/5-FU [20]): Active
- Ratio (Bel7402/5-FU [21]): 0.14
- Ratio [22]: 0.29
- Activity (Bel7402/5-FU [23]): Active
- Activity (Bel7402/5-FU [24]): 17.03%
- Ratio (Bel7402/5-FU [25]): 0.31
- Activity (Bel7402/5-FU [26]): Active
- Activity (Bel7402/5-FU [27]): 24.2%
- Ratio (Bel7402/5-FU [28]): 0.52
- pIC50 (L02): 7.05
- Ratio (Bel7402/5-FU [29]): 0.16
- Ratio (Bel7402/5-FU [30]): 0.39
- pIC50 (Bel-7402): 6.70
- Activity (Bel7402/5-FU [31]): Active
- Ratio (Bel7402/5-FU [32]): 0.47
- Ratio [33]: 0.17
- Ratio (Bel7402/5-FU [34]): 0.1
- Ratio (Bel7402/5-FU [35]): 0.57

SMILES: CC(C)Cc1ccc(C(C)C(=O)O)cc1 (stereo not given) [IBUPROFEN]
- pIC50 (Bel7402/5-FU [1]): < 4.00
- pIC50 (L02): < 4.00
- pIC50 (Bel-7402): < 4.00
